Structures are written as SMILES.

A short description of one data set: Rat PK: plasma clearance after PO and IV dosing. The data set is classed as in vivo. As to conditions: fasted male Wistar Han rats; IV 0.5 mg/kg or 0.05 mg/kg; 20/60/20 DMSO/PEG400/H2O. Here is the method: Experimental Procedure for Collecting Rat PK:
Pharmacokinetic parameters were determined following PO and IV dosing at 1 mg/kg and 0.5 mg/kg or 0.05 mg/kg respectively in fasted male Wistar Han rats. Compounds were formulated for both PO and IV dosing in 20/60/20 DMSO/PEG400/H2O. Plasma samples obtained from dosed animals were acidified by adding 30 μL of 2% formic acid to 100 μL of plasma to stabilize potential acyl-glucuronide metabolites. Sample clean-up was carried out by means of a single step protein precipitation technique by adding 200 μL of acetonitrile to 50 μL aliquots of individual subject samples. Samples were mixed by vortex for homogeneity and then subjected to centrifugation at 3500 rpm for 10 min. The supernatant (200 μL) was collected and an aliquot was injected into the LC-MS/MS for analysis. Pharmacokinetic parameters were calculated using established non-compartmental methods. The area under the plasma concentration versus time curve (AUC) was determined using the Watson software (version 7.3) or Phoenix Professional (version 6.2.1), with linear trapezoidal interpolation in the ascending slope and logarithmic trapezoidal interpolation in the descending slope. The portion of the AUC from the last measurable concentration to infinity was estimated from the equation, Ct/kel, where Ct represents the last measurable concentration and kel is the elimination rate constant. The latter was determined from the concentration versus time curve by linear regression at the terminal phase of the semi-logarithmic plot.
For the compound `O=C(O)c1ccc(-c2nn(C(=O)c3c(Cl)cccc3C(F)(F)F)c3cccnc23)c(F)c1` [historical compound, reference compound], the “Rat plasma clearance (Clp)” value was 76 mL/min/kg.

The same data set, now with this note: rat, plasma; fasted male Wistar Han rats; IV 0.5 mg/kg or 0.05 mg/kg; 20/60/20 DMSO/PEG400/H2O; read-out: Rat plasma clearance (Clp).
`O=C(O)c1ccc(-c2nn(C(=O)c3c(C4(C(F)F)CC4)ccc(F)c3Cl)c3cccnc23)c(F)c1` [Example 1H, 4-(1-(2-chloro-6-(1-(difluoromethyl)cyclopropyl)-3-fluorobenzoyl)-1H-pyrazolo[4,3-b]pyridin-3-yl)-3-fluorobenzoic acid]: the clearance was 16 mL/min/kg. Take `Cc1cccc(C2(C(F)(F)F)CC2)c1C(=O)n1nc(-c2ccc(C(=O)O)cc2F)c2ncccc21` [Example 1C, 3-fluoro-4-(1-(2-methyl-6-(1-(trifluoromethyl)cyclopropyl)benzoyl)-1H-pyrazolo[4,3-b]pyridin-3-yl)benzoic acid]: the clearance came out at 21 mL/min/kg. `O=C(O)c1ccc(-c2cn(C(=O)c3c(Cl)cccc3C3(C(F)(F)F)CC3)c3cccnc23)c(F)c1` [Example 1B, 4-(1-(2-chloro-6-(1-(trifluoromethyl)cyclopropyl)benzoyl)-1H-pyrrolo[3,2-b]pyridin-3-yl)-3-fluorobenzoic acid]: the clearance is 5 mL/min/kg. Regarding `O=C(O)c1ccc(-c2nn(C(=O)c3c(C4(C(F)(F)F)CC4)ccc(F)c3Cl)c3cccnc23)c(F)c1` [Example 1F, 4-(1-(2-chloro-3-fluoro-6-(1-(trifluoromethyl)cyclopropyl)benzoyl)-1H-pyrazolo[4,3-b]pyridin-3-yl)-3-fluorobenzoic acid], the clearance worked out at 8 mL/min/kg.

As to `O=C(O)c1ccc(-c2nn(C(=O)c3c(Cl)cccc3C3(CF)CC3)c3cccnc23)c(F)c1` [Example 1E, 4-(1-(2-chloro-6-(1-(fluoromethyl)cyclopropyl)benzoyl)-1H-pyrazolo[4,3-b]pyridin-3-yl)-3-fluorobenzoic acid], the clearance amounted to 16 mL/min/kg.

With `O=C(O)c1ccc(-c2nn(C(=O)c3c(C(F)F)cccc3C3(C(F)(F)F)CC3)c3cccnc23)c(F)c1` [Example 1G, 4-(1-(2-(difluoromethyl)-6-(1-(trifluoromethyl)cyclopropyl)benzoyl)-1H-pyrazolo[4,3-b]pyridin-3-yl)-3-fluorobenzoic acid], the clearance came out at 5 mL/min/kg. `O=C(O)c1ccc(-c2cn(C(=O)c3c(Cl)cccc3C3(C(F)F)CC3)c3cccnc23)c(F)c1` [Example 1J]: the clearance came to 5 mL/min/kg. For the compound `O=C(O)c1ccc(-c2nn(C(=O)c3c(Cl)cccc3C3(C(F)(F)F)CC3)c3cccnc23)c(F)c1` [Example 1A, 4-(1-(2-chloro-6-(1-(trifluoromethyl)cyclopropyl)benzoyl)-1H-pyrazolo[4,3-b]pyridin-3-yl)-3-fluorobenzoic acid], the clearance turned out to be 6 mL/min/kg.

In the case of `Cc1c(F)ccc(C2(C(F)(F)F)CC2)c1C(=O)n1nc(-c2ccc(C(=O)O)cc2F)c2ncccc21` [Example 1I, 3-fluoro-4-(1-(3-fluoro-2-methyl-6-(1-(trifluoromethyl)cyclopropyl)benzoyl)-1H-pyrazolo[4,3-b]pyridin-3-yl)benzoic acid], the clearance was determined as 18 mL/min/kg. As to `O=C(O)c1ccc(-c2nn(C(=O)c3c(Cl)cccc3C3(C(F)F)CC3)c3cccnc23)c(F)c1` [Example 1D, 4-(1-(2-chloro-6-(1-(difluoromethyl)cyclopropyl)benzoyl)-1H-pyrazolo[4,3-b]pyridin-3-yl)-3-fluorobenzoic acid], the clearance worked out at 10 mL/min/kg.
